EP4553080A1, “NUCLEOSIDE DERIVATIVES AS ANTIVIRAL AGENTS AGAINST CORONAVIRUSES” (Ustav Organicke Chemie a Biochemie AV CR, v.v.i., priority 2023, dated 2025)

Biological target: nsp14 methyltransferase from SARS-CoV-2 (Severe acute respiratory syndrome coronavirus 2, UniProt P0DTD1)
Experiment: Nsp14 MTase activity inhibition in vitro (EchoMS assay)
Type: biochemical
Conditions: recombinant nsp14 protein expressed in E. coli; dose-response curve

`CCc1onc(-c2ccccc2)c1CSC[C@H]1O[C@@H](n2ccc3c(N)ncnc32)[C@H](O)[C@@H]1O` [Compound 106c, (2R,3R,4S,5S)-2-(4-Amino-7H-pyrrolo[2,3-d]pyrimidin-7-yl)-5-((((5-ethyl-3-phenyllsoxazol-4-yl)methyl)thio)methyl)tetrahydrofuran-3,4-diol] was tested. Which IC50 did it give?
The IC50 was 100 to 500 nM.

With `Cc1noc(-c2ccccc2)c1CSC[C@H]1O[C@@H](n2cc(C#Cc3nc4ccccc4[nH]3)c3c(N)ncnc32)[C@H](O)[C@@H]1O` [Compound 179b, (2R,3R,4S,5S)-2-(5-((1H-Benzo[d]imidazol-2-yl)ethynyl)-4-amino-7H-pyrrolo[2,3-d]pyrimidin-7-yl)-5-((((3-methyl-5-phenylisoxazol-4-yl)methyl)thio)methyl)tetrahydrofiiran-3,4-diol] as the compound, how does the IC50 read?
Its IC50 is 100 to 500 nM.

`Cc1snc(-c2ccccc2)c1CSC[C@H]1O[C@@H](n2ccc3c(N)ncnc32)[C@H](O)[C@@H]1O` [Compound 59c, (2R,3R,4S,5S)-2-(4-Amino-7H-pyrrolo[2,3-d]pyrimidin-7-yl)-5-((((5-methyl-3-phenylisothiazol-4-yl)methyl)thio)methyl)tetrahydrofuran-3,4-diol] was tested. Which IC50 did it give?
The IC50 was 30 to 100 nM.

How did the IC50 turn out when `Cc1noc(-c2ccccc2)c1CSC[C@H]1O[C@@H](n2ccc3c(N)nc(F)nc32)[C@H](O)[C@@H]1O` [Compound 198, (2R,3R,4S,5S)-2-(4-Amino-2-fluoro-7H-pyrrolo[2,3-d]pyrimidin-7-yl)-5-((((3-methyl-5-phenylisoxazol-4-yl)methyl)thio)methyl)tetrahydrofuran-3,4-diol] was run?
The IC50 was 30 to 100 nM.

`Cn1nnc(-c2ccccc2)c1CSC[C@H]1O[C@@H](n2ccc3c(N)ncnc32)[C@H](O)[C@@H]1O` [Compound 55c, (2R,3R,4S,5S)-2-(4-Amino-7H-pyrrolo[2,3-d]pyrimidin-7-yl)-5-((((1-methyl-4-phenyl-1H-1,2,3-triazol-5-yl)methyl)thio)methyl)tetrahydrofuran-3,4-diol] was tested. Which IC50 did it give?
Its IC50 is 30 to 100 nM.

With `Cc1noc(-c2ccc3c(c2)OCO3)c1CSC[C@H]1O[C@@H](n2nc(-c3ccc(CC#N)cc3)c3c(N)ncnc32)[C@H](O)[C@@H]1O` [Compound 226, 2-(4-(4-Amino-1-((2R,3R,4S,5S)-5-((((5-(benzo[d][1,3]dioxol-5-yl)-3-methylisoxazol-4-yl)methyl)thio)methyl)-3,4-dihydroxytetrahydrofuran-2-yl)-1H-pyrazolo[3,4-d]pyrimidin-3-yl)phenyl)acetonitrile] as the compound, how does the IC50 read?
The IC50 was 10 to 30 nM.

`Cc1cncc(-c2ccccc2)c1CSC[C@H]1O[C@@H](n2ccc3c(N)ncnc32)[C@H](O)[C@@H]1O` [Compound 57c, (2R,3R,4S,5S)-2-(4-Amino-7H-pyrrolo[2,3-d]pyrimidin-7-yl)-5-((((3-methyl-5-phenylpyridin-4-yl)methyl)thio)methyl)tetrahydrofuran-3,4-diol] was tested. Which IC50 did it give?
The IC50 was 30 to 100 nM.

With `Cc1noc(-c2ccccc2)c1CSC[C@H]1O[C@@H](n2cc(Cc3ccccc3)c3c(N)ncnc32)[C@H](O)[C@@H]1O` [Compound 185b, (2R,3R,4S,5S)-2-(4-Amino-5-benzyl-7H-pyrrolo[2,3-d]pyrimidin-7-yl)-5-((((3-methyl-5-phenylisoxazol-4-yl)methyl)thio)methyl)tetrahydrofuran-3,4-diol] as the compound, how does the IC50 read?
The IC50 was 100 to 500 nM.

With `Cc1noc(-c2ccccc2)c1CSC[C@H]1O[C@@H](n2cc(C#Cc3cnc4ccccc4n3)c3c(N)ncnc32)[C@H](O)[C@@H]1O` [Compound 177b, (2R,3R,4S,5S)-2-(4-Amino-5-(quinoxalin-2-ylethynyl)-7H-pyrrolo[2,3-d]pyrimidin-7-yl)-5-((((3-methyl-5-phenylisoxazol-4-yl)methyl)thio)methyl)tetrahydrofuran-3,4-diol] as the compound, how does the IC50 read?
The IC50 was 30 to 100 nM.

How did the IC50 turn out when `Cc1noc(-c2ccccc2)c1CSC[C@H]1O[C@@H](n2cc(C#Cc3cccnc3)c3c(N)ncnc32)[C@H](O)[C@@H]1O` [Compound 170b, (2R,3R,4S,5S)-2-(4-Amino-5-(pyridin-3-ylethynyl)-7H-pyrrolo[2,3-d]pyrimidin-7-yl)-5-((((3-methyl-5-phenylisoxazol-4-yl)methyl)thio)methyl)tetrahydrofuran-3,4-diol] was run?
The IC50 was 10 to 30 nM.

With `Cc1noc(-c2ccccc2)c1CSC[C@H]1O[C@@H](n2cc(C3CCCCC3)c3c(N)ncnc32)[C@H](O)[C@@H]1O` [Compound 134b, (2R,3R,4S,5S)-2-(4-Amino-5-cyclohexyl-7H-pyrrolo[2,3-d]pyrimidin-7-yl)-5-((((3-methyl-5-phenylisoxazol-4-yl)methyl)thio)methyl)tetrahydrofuran-3,4-diol] as the compound, how does the IC50 read?
Its IC50 is 100 to 500 nM.

`Cc1n[nH]c(-c2ccccc2)c1CSC[C@H]1O[C@@H](n2ccc3c(N)ncnc32)[C@H](O)[C@@H]1O` [Compound 51c, (2R,3R,4S,5S)-2-(4-Amino-7H-pyrrolo[2,3-d]pyrimidin-7-yl)-5-((((3-methyl-5-phenyl-1H-pyrazol-4-yl)methyl)thio)methyl)tetrahydrofuran-3,4-diol] was tested. Which IC50 did it give?
The IC50 was 100 to 500 nM.

With `Cc1noc(-c2ccccc2)c1CSC[C@H]1O[C@@H](n2cc(C(C)C)c3c(N)ncnc32)[C@H](O)[C@@H]1O` [Compound 129b] as the compound, how does the IC50 read?
The IC50 was 100 to 500 nM.

How did the IC50 turn out when `Nc1ncnc2c1ccn2[C@@H]1O[C@H](CSCc2[nH]cnc2-c2ccccc2)[C@@H](O)[C@H]1O` [Compound 104c, (2R,3R,4S,5S)-2-(4-Amino-7H-pyrrolo[2,3-d]pyrimidin-7-yl)-5-((((4-phenyl-1H-imidazol-5-yl)methyl)thio)methyl)tetrahydrofuran-3,4-diol] was run?
Its IC50 is 500 to 2000 nM.

`Cc1ncnc(-c2ccccc2)c1CSC[C@H]1O[C@@H](n2cc(C#Cc3cncnc3)c3c(N)ncnc32)[C@H](O)[C@@H]1O` [Compound 239c, (2R,3R,4S,5S)-2-(4-Amino-5-(pyrimidin-5-ylethynyl)-7H-pyrrolo[2,3-d]pyrimidin-7-yl)-5-((((4-methyl-6-phenylpyrimidin-5-yl)methyl)thio)methyl)tetrahydrofuran-3,4-diol] was tested. Which IC50 did it give?
The IC50 was 30 to 100 nM.

How did the IC50 turn out when `Cc1noc(-c2ccccc2)c1CSC[C@H]1O[C@@H](n2cc(-c3ccc(OC(F)(F)F)cc3)c3c(N)ncnc32)[C@H](O)[C@@H]1O` [Compound 146b, (2R,3R,4S,5S)-2-(4-Amino-5-(4-(trifluoromethoxy)phenyl)-7H-pyrrolo[2,3-d]pyrimidin-7-yl)-5-((((3-methyl-5-phenylisoxazol-4-yl)methyl)thio)methyl)tetrahydrofuran-3,4-diol] was run?
Its IC50 is 100 to 500 nM.

How did the IC50 turn out when `CC(C)c1onc(-c2ccccc2)c1CSC[C@H]1O[C@@H](n2ccc3c(N)ncnc32)[C@H](O)[C@@H]1O` [Compound 107c, (2R,3R,4S,5S)-2-(4-Amino-7H-pyrrolo[2,3-d]pyrimidin-7-yl)-5-((((5-isopropyl-3-phenylisoxazol-4-yl)methyl)thio)methyl)tetrahydrofuran-3,4-diol] was run?
Its IC50 is 500 to 2000 nM.
